Experimental data from article PMC8079033, “Design, synthesis, anticancer evaluation, and molecular modelling studies of novel tolmetin derivatives as potential VEGFR-2 inhibitors and apoptosis inducers” (Journal of Enzyme Inhibition and Medicinal Chemistry, 2021).

Key:
[1] = test system: U251; assay: NCI 60-cell line one-dose antiproliferative screen (SRB); assay type: cell-based; details: Homo sapiens, U-251, read-out: growth inhibition % (GI%)
Procedure: (§1) Anticancer activity screening of the newly synthesised compounds was measured in vitro utilising 60 different human tumour cell lines provided by US National Cancer Institute according to previously reported standard procedure[41–43] as follows: Cells are inoculated into 96-well microtiter plates in 100 ml. After cell inoculation, the microtiter plates are incubated at 37 °C, 5% CO2, 95% air, and 100% relative humidity for 24 h prior to addition of experimental compounds. After 24 h, two plates of each cell line are fixed in situ with TCA, to represent a measurement of the cell population for each cell line at the time of compound addition (Tz). Experimental compounds are solubilised in dimethyl sulfoxide at 400-fold the desired final maximum test concentration and stored frozen prior to use. At the time of compound addition, an aliquot of frozen concentrate is thawed and diluted to twice the desired final maximum test concentration with a complete medium containing […] gentamicin. Aliquots of […] of the compounds dilutions are added to the appropriate microtiter wells already containing 100 ml of medium, resulting in the required final compound concentration. Following compound addition, the plates are incubated for an additional 48 h at 37 °C, 5% CO2, 95% air, and 100% relative humidity. For adherent cells, the assay is terminated by the addition of cold trichloroacetic acid (TCA). Cells are fixed in situ by the gentle addition of 50 ml of cold 50% (w/v) TCA (final concentration, 10% TCA) and incubated for […] at 4 °C. The supernatant is discarded, and the plates are washed five times with tap water and air-dried. Sulforhodamine B (SRB) solution (100 ml) at 0.4% (w/v) in 1% acetic acid is added to each well, and plates are incubated for 10 min at room temperature. After staining, the unbound dye is removed by washing five times with 1% acetic acid and the plates are air-dried. The bound stain is subsequently solubilised with a 10 mM trizma base, and the absorbance is read on an automated plate reader at a wavelength of 515 nm. For suspension cells, the methodology is the same except that the assay is terminated by fixing settled cells at the bottom of the wells by gently adding 50 ml of 80% TCA (final concentration, 16% TCA). Using the absorbance measurements [time zero, (Tz), control growth, (C), and test growth in the presence of compound (Ti)], the percentage growth is calculated for each compound. The One-dose data are reported as a mean graph of the percent growth of treated cells. The reported number is growth relative to the no-compound control, and relative to the time zero number of cells. This allows the detection of both growth inhibition and lethality.
(§2) Fifteen newly synthesised compounds were tested for their in vitro antiproliferative activity by the National Cancer Institute (NCI), Maryland, USA[50], under the Developmental Therapeutic Program (DTP)[41]^,[43]^,[51]^,[52]. The tested compounds were evaluated at a concentration of 10 µM on a panel of 60 tumour cell lines representing leukaemia and non-small cell lung, colon, CNS, melanoma, ovarian, renal, prostate, and breast cancers. The antiproliferative activity was presented by the NCI as percent growth of the treated cells and is presented in Table 1 as growth inhibition percentage (GI%) achieved by the tested compounds.

[2] = test system: UO-31; assay: as above; assay type: cell-based; details: Homo sapiens, read-out: growth inhibition % (GI%)
Procedure: as §1, §2

[3] = test system: MDA-MB-435; assay: as above; assay type: cell-based; details: Homo sapiens, read-out: growth inhibition % (GI%)
Procedure: as §1, §2

[4] = test system: LOX IMVI; assay: as above; assay type: cell-based; details: Homo sapiens, read-out: growth inhibition % (GI%)
Procedure: as §1, §2

[5] = test system: PC-3; assay: as above; assay type: cell-based; details: Homo sapiens, read-out: growth inhibition % (GI%)
Procedure: as §1, §2

[6] = test system: OVCAR-5; assay: as above; assay type: cell-based; details: Homo sapiens, read-out: growth inhibition % (GI%)
Procedure: as §1, §2

[7] = test system: UACC-257; assay: as above; assay type: cell-based; details: Homo sapiens, read-out: growth inhibition % (GI%)
Procedure: as §1, §2

[8] = test system: SK-MEL-5; assay: as above; assay type: cell-based; details: Homo sapiens, read-out: growth inhibition % (GI%)
Procedure: as §1, §2

[9] = test system: SF-539; assay: as above; assay type: cell-based; details: Homo sapiens, read-out: growth inhibition % (GI%)
Procedure: as §1, §2

[10] = test system: ACHN; assay: as above; assay type: cell-based; details: Homo sapiens, read-out: growth inhibition % (GI%)
Procedure: as §1, §2

[11] = test system: CAKI-1; assay: as above; assay type: cell-based; details: Homo sapiens, read-out: growth inhibition % (GI%)
Procedure: as §1, §2

[12] = test system: OVCAR-8; assay: as above; assay type: cell-based; details: Homo sapiens, read-out: growth inhibition % (GI%)
Procedure: as §1, §2

[13] = test system: NCI-H226; assay: as above; assay type: cell-based; details: Homo sapiens, read-out: growth inhibition % (GI%)
Procedure: as §1, §2

[14] = test system: HCC-2998; assay: as above; assay type: cell-based; details: Homo sapiens, read-out: growth inhibition % (GI%)
Procedure: as §1, §2

[15] = test system: HCT-15; assay: as above; assay type: cell-based; details: Homo sapiens, read-out: growth inhibition % (GI%)
Procedure: as §1, §2

[16] = test system: EKVX; assay: as above; assay type: cell-based; details: Homo sapiens, read-out: growth inhibition % (GI%)
Procedure: as §1, §2

[17] = test system: SF-268; assay: as above; assay type: cell-based; details: Homo sapiens, read-out: growth inhibition % (GI%)
Procedure: as §1, §2

[18] = test system: SW-620; assay: as above; assay type: cell-based; details: Homo sapiens, read-out: growth inhibition % (GI%)
Procedure: as §1, §2

[19] = test system: SF-295; assay: as above; assay type: cell-based; details: Homo sapiens, read-out: growth inhibition % (GI%)
Procedure: as §1, §2

[20] = test system: MDA-MB-468; assay: as above; assay type: cell-based; details: Homo sapiens, read-out: growth inhibition % (GI%)
Procedure: as §1, §2

[21] = test system: UACC-62; assay: as above; assay type: cell-based; details: Homo sapiens, read-out: growth inhibition % (GI%)
Procedure: as §1, §2

[22] = test system: MDA-MB-231/ATCC; assay: as above; assay type: cell-based; details: Homo sapiens, read-out: growth inhibition % (GI%)
Procedure: as §1, §2

[23] = test system: IGROV1; assay: as above; assay type: cell-based; details: Homo sapiens, IGROV-1, read-out: growth inhibition % (GI%)
Procedure: as §1, §2

[24] = test system: HOP-62; assay: as above; assay type: cell-based; details: Homo sapiens, read-out: growth inhibition % (GI%)
Procedure: as §1, §2

[25] = test system: NCI-H522; assay: as above; assay type: cell-based; details: Homo sapiens, read-out: growth inhibition % (GI%)
Procedure: as §1, §2

[26] = test system: MCF7; assay: as above; assay type: cell-based; details: Homo sapiens, read-out: growth inhibition % (GI%)
Procedure: as §1, §2

[27] = test system: HOP-92; assay: as above; assay type: cell-based; details: Homo sapiens, read-out: growth inhibition % (GI%)
Procedure: as §1, §2

[28] = test system: NCI-H23; assay: as above; assay type: cell-based; details: Homo sapiens, read-out: growth inhibition % (GI%)
Procedure: as §1, §2

[29] = test system: SNB-75; assay: as above; assay type: cell-based; details: Homo sapiens, read-out: growth inhibition % (GI%)
Procedure: as §1, §2

[30] = test system: SN 12 C; assay: as above; assay type: cell-based; details: Homo sapiens, SN12C, read-out: growth inhibition % (GI%)
Procedure: as §1, §2

In the case of `Cc1ccc(C(=O)c2ccc(CC(=O)NN=C3C(=O)Nc4ccccc43)n2C)cc1` [Compound 6a, 2–(1-Methyl-5–(4-methylbenzoyl)-1H-pyrrol-2-yl)-N′-(2-oxoindolin-3-ylidene) acetohydrazide], the inhibition at 10 µM [1] is reported as under 10%, the inhibition at 10 µM [2] is reported as 25.7% and the inhibition at 10 µM [3] is reported as under 10%. It also gave an inhibition at 10 µM [4] of under 10%, an inhibition at 10 µM [5] of under 10% and an inhibition at 10 µM [6] of under 10%. For the same compound, the inhibition at 10 µM [7] was under 10%, the inhibition at 10 µM [8] was under 10% and the inhibition at 10 µM [9] was under 10%. For the same compound, the inhibition at 10 µM [10] was under 10%, the inhibition at 10 µM [11] was 12.3% and the inhibition at 10 µM [12] was under 10%. For the same compound, the inhibition at 10 µM [13] was under 10%, the inhibition at 10 µM [14] was under 10% and the inhibition at 10 µM [15] was under 10%. The inhibition at 10 µM [16] was under 10%, the inhibition at 10 µM [17] was under 10% and the inhibition at 10 µM [18] was under 10%. For the same compound, the inhibition at 10 µM [19] was under 10%, the inhibition at 10 µM [20] was 10.5% and the inhibition at 10 µM [21] was under 10%. It also gave an inhibition at 10 µM [22] of 11.4%, an inhibition at 10 µM [23] of under 10% and an inhibition at 10 µM [24] of under 10%. It also gave an inhibition at 10 µM [25] of under 10%, an inhibition at 10 µM [26] of under 10% and an inhibition at 10 µM [27] of 11.1%. It also gave an inhibition at 10 µM [28] of under 10%, an inhibition at 10 µM [29] of 29.6% and an inhibition at 10 µM [30] of under 10%. For the same compound, the melting point was 193 to 195 °C.
